In assay [1] the test system is 22Rv1-wild type (WT) cells. Kind of assay: CellTiter-Glo cell viability assay in 22Rv1 wild type cells. The format is cell-based, human. To be noted: 22Rv1 WT. How it is done:
(§1) Cells were seeded onto 96-well plates in appropriate culture media and allowed to adhere overnight prior to treatment. The next day, a nine-point serial dilution of the compounds was prepared and added to the plates. After treatment, the cells were then incubated for an additional 5 d. On the last day of treatment, the CellTiter-Glo cell viability assay (Promega) was then executed in accordance with the manufacturer’s guidelines. The signal (luminescence) from each well was determined using an Infinite M1000 Pro plate reader (Tecan). Relative viability was determined by dividing the signal from each well by the average of the control condition in each experiment. Finally, the data were analyzed and plotted using GraphPad Prism.

The test system of a further assay is 22Rv1 AUR-3 cells. Kind of assay: CellTiter-Glo cell viability assay in AU-15330-resistant 22Rv1 AUR-3 cells (ABCB1 overexpression). Format: cell-based, human. The conditions noted are these: for IC50: 22Rv1 AUR-3.
Description: (§2) The rising importance of the mSWI/SNF complex as a therapeutic target and the success ([32], [33]) of developing next-generation PROTAC degraders targeting the mSWI/SNF complex prompted us to proactively study potential resistance mechanisms that cancer cells may develop in response to this class of compounds. To achieve this, we cultured 22Rv1 cells in either DMSO or a lethal dose of AU-15330 for 1 mo, refreshing the drug twice a week, until resistant cells emerged. Upon obtaining a population of resistant cells, we unbiasedly characterized the genomic and transcriptomic alterations using whole-exome sequencing and bulk RNA sequencing (RNA-seq), respectively (Fig. 3A).
as §1

Assay [2] relates to VCaP castration-resistant tumor model. The experiment in a line: CRPC-VCaP xenograft efficacy study. To be noted: castrated CB17 SCID mice; enzalutamide 10 mg/kg oral gavage five times weekly; AU-24118 15 mg/kg oral gavage three times weekly. The format is in vivo. Here is the method:
Six-week-old CB17 (male) SCID mice were obtained from the breeding colony at the U-M. For all studies, tumors were measured two or three times per week using digital calipers, and tumor volumes were calculated using the formula (π/6) (L × W2), where L is length and W is width of the tumor. At study endpoint, mice were killed, and tumors were extracted and weighed. […] Once tumors grew to a palpable size (~400 mm^3), the mice were physically castrated. Once those tumors regained their precastration size, mice were then randomized and treated with either 15 mg/kg AU-24118 or vehicle by oral gavage 3 d per week with or without enzalutamide (10 mg/kg) by oral gavage 5 d per week for 4 wk.
IHC was performed on 4 µm formalin-fixed, paraffin-embedded tissue sections using BRG1 (SMARCA4), AR, FOXA1, ERG and C-Myc. The IHC process was performed on the Ventana ULTRA automated slide staining system using the Omnimap and Ultraview Universal DAB detection kit. The antibody details are provided in SI Appendix, Table S1. The following commercial kits from Roche-Ventana Medical System were used: Discovery CC1 (Cat No. 950-500), Discovery CC2 (Cat No. 950-123), OptiView Universal DAB Detection Kit (Cat No. 760-700), and OmniMap Universal DAB Detection Kit (Cat No. 760-149).
The TUNEL and In Situ Cell Death Detection Kits (TMR Red #12156792910; Roche Applied Science) were used to examine apoptosis, following the manufacturer’s instructions. Briefly, fixed sections were permeabilized with Triton X-100 and then washed in phosphate-buffered saline. Labeling was carried out at 37 °C for 60 min by addition of a reaction buffer that contained enzymes. A Zeiss Axiolmager M1 microscope was used to obtain images.

Another assay deals with 22Rv1 AUR-2 cells. Kind of assay: CellTiter-Glo cell viability assay in AU-15330-resistant 22Rv1 AUR-2 cells (SMARCA4 mutation). The format is cell-based, human. To be noted: dose-response (Fig. S4C).
Description: as §2
Cells were seeded onto 96-well plates in appropriate culture media and allowed to adhere overnight prior to treatment. The next day, a nine-point serial dilution of the compounds was prepared and added to the plates. After treatment, the cells were then incubated for an additional 5 d. […] The signal (luminescence) from each well was determined using an Infinite M1000 Pro plate reader (Tecan). Relative viability was determined by dividing the signal from each well by the average of the control condition in each experiment. Finally, the data were analyzed and plotted using GraphPad Prism.
On the technique in general: ATP-based viability assays read luminescence as a measure of living cells.

Assay [3] has as its system SMARCA4, SMARCA2 and PBRM1 in 22Rv1 AUR-2 cells. The experiment in a line: Immunoblot of target degradation in 22Rv1 AUR-2 cells. To be noted: 4 h, AU-15330 1 µM, AU-24118 0.1 µM. The format is cell-based, human. On the technique in general: Immunoblotting shows a protein as a band on a membrane.
Description: (§3) Lysates were prepared using radioimmunoprecipitation assay buffer (Thermo Fisher) with cOmpleteTM protease inhibitor cocktail tablets (Sigma-Aldrich) added. Total protein for each sample was determined using the DC Protein Assay (Bio-Rad) according to the manufacturer’s instructions. A standardized quantity of protein was resolved using NuPAGE Tris-Acetate Protein Gel (3 to 8%) (Thermo Fisher) or NuPAGE Bis-Tris Protein Gel (4 to 12%) (Thermo Fisher) and probed with primary antibodies as indicated. Following incubation with secondary antibodies conjugated with horseradish peroxidase, membranes were imaged on an Odyssey Fc Imager (LiCOR Biosciences).
For assay [4], the system named is mutant forms of SMARCA4 in HEK293 cells. Kind of assay: Immunoblot of overexpressed flag-tagged mutant SMARCA4 in HEK293 cells. Format: cell-based, human. To be noted: 24 h treatment. An excerpt:
GFP-SMARCA4 (Addgene, 65391) was used for the SMARCA4 mutation clone. The pLVX-TetOne-Puro-hAXL (Addgene, 124797) backbone was used as a starting point prior to undergoing a series of modifications. The endogenous target gene was removed, and a multiple cloning site (MCS) was inserted downstream of the endogenous promoter. Custom gblocks containing Flag-tagged WT SMARCA4 were synthesized (Integrated DNA Technologies, IDT) and inserted into the MCS. Subsequently, custom gblocks containing SMARCA4-N1540S, SMARCA4-I1551del, or SMARCA4-F1485S were inserted to replace the respective portion of WT SMARCA4. Finally, the TRE3G promoter was replaced with hPGK.
HEK293 cells were seeded overnight and transfected with Lipofectamine 3,000 (Thermo Fisher) according to the manufacturer’s protocol. Media were changed 8 h post transfection and incubated for 48 h prior to conducting further analyses.

Assay [5] relates to VCaP castration-resistant tumor model. Also on record: method as in PMID 34937944. The conditions noted are these: VCaP CRPC model, AU-15330 60 mg/kg; not an arm of this study; cited from earlier work.
Assay [6] relates to SMARCA4, PBRM1 and SMARCA2 in 22Rv1-AUR-3 xenografts. The experiment in a line: 22Rv1-AUR-3 xenograft pharmacodynamics study. The conditions noted are these: 5 d; AU-15330 60 mg/kg retro-orbital; zosuquidar 10, 20 or 40 mg/kg i.p.
Description: as §3
For the 22Rv1-AUR-3 model, bilateral subcutaneous dorsal flank tumors were established by injecting 1 × 10^6 cells suspended in a 1:1 mixture of serum-free medium and Matrigel (BD Biosciences). Once tumors reached an average volume of 100 mm^3, mice were randomized and treated with either 60 mg/kg AU-15330 by retro-orbital vein injection 3 times every other day and with or without 10 mg/kg, 20 mg/kg, or 40 mg/kg of zosuquidar by intraperitoneal injection daily for 5 d per week. […] Animals harboring tumors approaching that size were immediately killed. All in vivo studies were approved by the U-M IACUC.
The mark [7] stands for this setting: Fig. 4G/H, 5 d, without zosuquidar.
[8] abbreviates: Homo sapiens, 22Rv1, 120 h, Fig. 4G/H, 5 d, without zosuquidar.
[9] abbreviates: Homo sapiens, 22Rv1, Fig. S6A, siABCB1.
[10] abbreviates: Homo sapiens, 22Rv1, Fig. S6A, siNT (negative control).

The structures appear in SMILES notation. Where only a bound is given, the exact number is not on record here.

Turning to `Cc1cc([C@H](C(=O)N2C[C@H](O)C[C@H]2C(=O)N[C@@H](CC(=O)N2CCC(N3CCC(C#Cc4ccc(C(=O)NC5C(C)(C)C(Oc6ccc(C#N)c(Cl)c6)C5(C)C)cc4)CC3)CC2)c2ccc(-c3scnc3C)cc2)C(C)C)on1` (stereo partly drawn) [ARD-61, reference compound], the IC50 (as a rule, the concentration at which inhibition is half-maximal) in assay [1] (setting [7]) is 800 nM; in the assay with 22Rv1 AUR-3 cells (setting [7]), over 30000 nM. For the same compound, in the assay on 22Rv1 AUR-3 cells (22Rv1 AUR-3 cells (Fig. S5 E and F)), the “sensitivity of AUR-3 cells versus WT” value was “dramatically less sensitive”.
Take `CNC(=O)c1ccc(N2C(=S)N(c3ccc(C#N)c(C(F)(F)F)c3)C(=O)C2(C)C)cc1F` [Enzalutamide, enzalutamide, reference compound]: the tumor response entry in assay [2] is “moderate tumor growth inhibition”.
On to `Cc1ncsc1-c1ccc([C@H](C)NC(=O)[C@@H]2C[C@@H](O)CN2C(=O)[C@@H](NC(=O)CN2CCN(c3cc(-c4ccccc4O)nnc3N)CC2)C(C)(C)C)cc1` [AU-15330], for which the IC50 is 2.3 nM in assay [1] (setting [8]); 40.7 nM in assay [1] (Homo sapiens, 22Rv1, Fig. S5F); 48.9 nM in assay [1] (setting [9]); 45.5 nM in assay [1] (setting [10]); 28500 nM with 22Rv1 AUR-3 cells (setting [8]); 20500 nM in the assay with 22Rv1 AUR-3 cells (Homo sapiens, 22Rv1, Fig. S5F). For the same compound, the IC50 was 990 nM with 22Rv1 AUR-3 cells (setting [9]) and over 30000 nM in the assay with 22Rv1 AUR-3 cells (setting [10]). Further, the “ability to cause a decrease in cell viability” value in the assay with 22Rv1 AUR-2 cells is “unable”. Also, the “degradation of SMARCA2 and PBRM1, immunoblot” value in assay [3] was “able to degrade SMARCA2 and PBRM1”. The “degradation of SMARCA4, immunoblot” value in assay [3] is recorded as “unable to degrade SMARCA4”. For the same compound, the “degradation of overexpressed mutant SMARCA4, immunoblot” value in assay [4] is reported as “resistant to degradation”. Moreover, in assay [5], the “tumor response as a single agent” value is “more modest effects as a single agent”. The “degradation of target proteins in tumors, immunoblot” value in assay [6] is recorded as “unable to degrade any of its target proteins alone”.

These data come from article PMC11009648, “Development of an orally bioavailable mSWI/SNF ATPase degrader and acquired mechanisms of resistance in prostate cancer” (Proceedings of the National Academy of Sciences of the …, 2024).
